What was measured:
Experiment in all cases: relative viability (nuclei count vs DMSO), 5 days (fraction); higher = more cells survive
Avagacestat + Tozasertib = compound: NC(=O)[C@@H](CCC(F)(F)F)N(Cc1ccc(-c2ncon2)cc1F)S(=O)(=O)c1ccc(Cl)cc1 [Avagacestat] + Cc1cc(Nc2cc(N3CCN(C)CC3)nc(Sc3ccc(NC(=O)C4CC4)cc3)n2)n[nH]1 [Tozasertib] (partner 0.1 µM)
Outline: (§1)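 Five library-drug doses in √10 steps were combined with a fixed anchor-drug dose, or a single drug was given alone, by pin tool to lung cancer cell lines in 1536-well plates the day after seeding. Nuclei were stained and counted after 5 days. Relative viability is the nuclei count in treated wells over that in vehicle wells, taken as the median of duplicate plates.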

Avagacestat + Foretinib = compound: NC(=O)[C@@H](CCC(F)(F)F)N(Cc1ccc(-c2ncon2)cc1F)S(=O)(=O)c1ccc(Cl)cc1 [Avagacestat] + COc1cc2c(Oc3ccc(NC(=O)C4(C(=O)Nc5ccc(F)cc5)CC4)cc3F)ccnc2cc1OCCCN1CCOCC1 [Foretinib] (partner 0.25 µM)
Outline: as §1

Avagacestat + AZD7762 = compound: NC(=O)[C@@H](CCC(F)(F)F)N(Cc1ccc(-c2ncon2)cc1F)S(=O)(=O)c1ccc(Cl)cc1 [Avagacestat] + NC(=O)Nc1cc(-c2cccc(F)c2)sc1C(=O)N[C@H]1CCCNC1 [AZD7762] (partner 0.2 µM)
Outline: as §1

Avagacestat + Luminespib = compound: NC(=O)[C@@H](CCC(F)(F)F)N(Cc1ccc(-c2ncon2)cc1F)S(=O)(=O)c1ccc(Cl)cc1 [Avagacestat] + CCNC(=O)c1noc(-c2cc(C(C)C)c(O)cc2O)c1-c1ccc(CN2CCOCC2)cc1 [Luminespib] (partner 0.01 µM)
Outline: as §1

Cell Line	relative viability (Avagacestat + Tozasertib; first compound 0.08 µM)	relative viability (Avagacestat + Tozasertib; first compound 0.253 µM)	relative viability (Avagacestat + Tozasertib; first compound 0.8 µM)	relative viability (Avagacestat + Tozasertib; first compound 2.53 µM)	relative viability (Avagacestat + Tozasertib; first compound 8 µM)	relative viability (Avagacestat + Foretinib; first compound 0.08 µM)	relative viability (Avagacestat + Foretinib; first compound 0.253 µM)	relative viability (Avagacestat + Foretinib; first compound 0.8 µM)	relative viability (Avagacestat + Foretinib; first compound 2.53 µM)	relative viability (Avagacestat + Foretinib; first compound 8 µM)	relative viability (Avagacestat + AZD7762; first compound 0.08 µM)	relative viability (Avagacestat + AZD7762; first compound 0.253 µM)	relative viability (Avagacestat + AZD7762; first compound 0.8 µM)	relative viability (Avagacestat + AZD7762; first compound 2.53 µM)	relative viability (Avagacestat + AZD7762; first compound 8 µM)	relative viability (Avagacestat + Luminespib; first compound 0.08 µM)	relative viability (Avagacestat + Luminespib; first compound 0.253 µM)	relative viability (Avagacestat + Luminespib; first compound 0.8 µM)	relative viability (Avagacestat + Luminespib; first compound 2.53 µM)	relative viability (Avagacestat + Luminespib; first compound 8 µM)
NCI-H838	0.277	0.286	0.269	0.276	0.269	1.1	1.35	1.07	1.01	0.944	0.988	0.971	0.997	0.857	0.861	0.363	0.256	0.233	0.254	0.191
NCI-H1355	0.523	0.534	0.593	0.454	0.392	1.11	1.24	0.961	0.846	0.785	0.98	0.777	0.809	0.654	0.699	0.769	0.717	0.797	0.635	0.641
NCI-H1395	0.826	0.758	0.752	0.64	0.715	0.981	0.946	0.903	0.899	0.846	0.407	0.365	0.369	0.412	0.333	0.806	0.836	0.567	0.799	0.662
NCI-H1437	0.416	0.457	0.41	0.377	0.307	1.42	1.41	1.27	1.23	1.11	1.16	1.15	1.02	1.09	0.906	1.4	1.28	1.12	1.17	1.05
NCI-H1651	0.955	0.862	0.719	0.609	0.585	0.899	0.884	0.895	0.847	0.596	0.531	0.538	0.561	0.441	0.36	1.09	0.931	0.726	0.719	0.852
NCI-H1666	0.726	0.602	0.706	0.582	0.586	1.32	1.15	1.16	1.07	1.07	1	0.88	1	0.93	0.876	1.29	1.21	1.12	1.07	1.13
NCI-H1734	0.235	0.301	0.264	0.236	0.24	0.932	0.934	0.839	0.771	0.835	0.612	0.65	0.641	0.5	0.592	0.219	0.179	0.212	0.202	0.175
NCI-H1755	0.641	0.562	0.575	0.624	0.54	0.951	0.921	1	0.847	0.849	0.425	0.672	0.4	0.38	0.473	0.72	0.55	0.418	0.697	0.386

From the supplement of paper PMC10307832
